Test results as given in patent US10981926B2 (Janssen Pharmaceutica NV, priority 2016, dated 2021).
Where two headings read alike, the source gives them in different places.

Assays:
[1] = molecular target: AR (human) (Homo sapiens (Human), UniProt P10275, T878A); test: Radioligand binding to AR; conditions: [3H]methyltrienolone, LNCaP cells (cytosol)
Procedure: Radioligand binding assays were performed with the cell extracts and ligands as detailed below. Complete methodology is contained within the cited publications. Kd values were determined by Non-Specific Incubation Detection Method.
AR (human) (agonist radioligand) LNCaP cells (cytosol)
[^3H]methyltrienolone 1 nM 0.8 nM mibolerone (1 μM) 24 h 4° C. Scintillation counting.
The results are expressed as a percent of control specific binding measured specific binding*100 control specific binding and as a percent inhibition of control specific binding 100-(measured specific binding*100) control specific binding obtained in the presence of compound.
The IC50 values (concentration causing a half-maximal inhibition of control specific binding) and Hill coefficients (nH) were determined by non-linear regression analysis of the competition curves generated with mean replicate values using Hill equation curve fitting. Y=D+[A−D] 1+(C/C50)nH
wherein Y=specific binding, A=left asymptote of the curve, D=right asymptote of the curve, C=compound concentration, C50=IC50, and nH=slope factor. […]
The inhibition constants (Ki) were calculated using the Cheng Prusoff equation: Ki=[…]
Radioligand binding inhibition and affinity calculations were determined using [^3H]-methyltrienolone, [^3H]-dexamethasone and [^3H]-estradiol for AR, GR and ER, respectively. […]

[2] = molecular target: AR-FL and AR-V7 in 22RV1 cells; test: 22RV1 AR-FL and AR-V7 Transcriptional Reporter Assay; assay type: cell-based
Procedure: 22RV1 were obtained from ATCC and cultured in RPMI 1640 supplemented with 10% FBS. Cells were seeded at a density of 15,000 cells/well into Greiner 384-well, white, optical-bottom plates in RPMI 1640 phenol red-free medium with 1% charcoal stripped FBS and incubated for 2 days at 37° C. The cells were treated with a compound or Formula (I) in 12-point dose-response, both in the presence and absence of 0.1 nM R1881 for 18-24 hrs. At the end of assay, Steady-Glo reagent (Promega) was added to each well according to the manufacturer's instructions, placed on a shaker at 300 rpm for 10 min, and luminescence recorded using an EnVision plate reader (Perkin Elmer). The data was exported to GraphPad Prism and analyzed using the Four Parameter equation to obtain IC50 values for each compound. Each compound was tested in at least three independent experiments.

[3] = system: androgen dependent signaling (androgen sensitive organs); test: Hershberger Assay; assay type: in vivo, rat
Procedure: The effect of AR antagonists on androgen dependent signaling in vivo was assessed using the Hershberger assay. In this assay, peripubertal castrated male Sprague-Dawley rats were administered AR antagonists described herein in the presence of testosterone (0.4 mg/kg testosterone propionate) and the weights of androgen dependent organs measured. Dosing was continued for 10 days and measurements taken 24 h after the last dose. The extent of antagonism of AR and consequent inhibition of organ growth was evaluated by comparison to the castration control. Compounds of Formula (I) were dosed orally QD and an endpoint assessment made by change in weight of 5 androgen sensitive organs (ASO): Paired Cowper's Glands (CG), Seminal Vesicles with Fluids and Coagulating Glands (SVCG), Glans Penis (GP), Ventral Prostate (VP) and Levator Ani-Bulbocavernosus Complex (LABC)). According to assay guidelines, statistically significant suppression of ASO is required in 2 of 5 organs for a compound to be classified as an anti-androgen (analysis was performed by t-test/Mann-Whitney).
Unless otherwise stated, compounds defined herein were administered at 30 mg/kg and flutamide (FT), positive control, at 3 mg/kg. All compounds were co-administered with testosterone propionate (TP, 0.4 mg/kg) which was also administered alone, untreated control, (castrated only rats served as the control for complete androgen blockade). A statistically significant change in ASO achieved in at least 2 of 5 organs was indicative of an active compound.

[4] = system: LNCaP SRαF876L cells; test: Castrate Resistant Prostate Cancer Xenograft Study; assay type: in vivo, mouse; conditions: castrate SHO mice
Procedure: Castrate six to seven week old male SCID Hairless Outbred mice (SHO, Charles Rivers Laboratories) were used as the host strain for xenograft studies. LNCaP SRαF876L cells were cultured as 3-D spheroids and expanded prior to subcutaneous injection on the flank of the animals (supplied post castration). Briefly, 5 mls of cells in media+5 mls of cultrex were premixed prior to plating of 500 μl=2×10^5 cells per well of a 24-well plate. Plates were incubated @ 37° C. for 30 min before addition of complete media on top and returned to incubator for growth of 3-D colonies. After 7 days, media was removed, plates chilled and contents of each well, 500 μl cultrex and cells, injected into flank of a recipient mouse. Tumor volume (length×width2/2) was monitored weekly. When tumors reached an average volume of ˜200 mm^3, animals were randomized into treatment groups. During the treatment period tumor volume was monitored bi-weekly. At study end, tumor growth inhibition (TGI) was calculated: 100−(Treated/Control*100). At the termination of study tumors were collected and stored for further analyses.

[5] = 30 mg/kg orally QD, 10 days, with TP 0.4 mg/kg, castrated rats, mean ± SD (n=6)

Chain of AR (human) (P10275 whole entry T878A): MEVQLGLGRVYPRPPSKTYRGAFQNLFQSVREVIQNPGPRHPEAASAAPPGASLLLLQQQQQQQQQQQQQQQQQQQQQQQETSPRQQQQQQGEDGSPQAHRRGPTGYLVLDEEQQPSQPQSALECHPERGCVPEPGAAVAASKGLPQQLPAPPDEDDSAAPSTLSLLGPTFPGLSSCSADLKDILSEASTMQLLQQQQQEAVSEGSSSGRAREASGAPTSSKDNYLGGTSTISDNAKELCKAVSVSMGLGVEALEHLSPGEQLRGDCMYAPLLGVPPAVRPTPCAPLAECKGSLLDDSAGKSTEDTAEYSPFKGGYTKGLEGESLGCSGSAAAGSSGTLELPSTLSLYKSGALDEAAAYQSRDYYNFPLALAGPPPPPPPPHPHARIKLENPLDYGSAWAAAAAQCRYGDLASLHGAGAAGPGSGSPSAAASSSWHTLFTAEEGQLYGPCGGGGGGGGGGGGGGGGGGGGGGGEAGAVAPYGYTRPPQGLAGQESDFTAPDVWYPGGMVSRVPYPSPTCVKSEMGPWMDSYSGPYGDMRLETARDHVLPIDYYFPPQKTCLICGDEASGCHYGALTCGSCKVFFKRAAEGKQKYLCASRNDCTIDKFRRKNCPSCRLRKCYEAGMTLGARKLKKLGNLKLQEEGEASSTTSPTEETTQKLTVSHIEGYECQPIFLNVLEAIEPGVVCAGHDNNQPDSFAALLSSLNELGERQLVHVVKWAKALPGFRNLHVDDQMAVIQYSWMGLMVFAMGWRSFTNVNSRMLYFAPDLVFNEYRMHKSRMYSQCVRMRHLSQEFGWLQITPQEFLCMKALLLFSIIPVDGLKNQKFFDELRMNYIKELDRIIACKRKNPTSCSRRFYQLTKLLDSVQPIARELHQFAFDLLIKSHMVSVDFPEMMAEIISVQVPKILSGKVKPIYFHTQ

- IC50 [1]: 6.9 nM
- Ki ([1]; Cheng Prusoff): 3 nM
- IC50 ([2]; 22RV1, in the absence of 0.1 nM R1881, read-out: IC50, agonist mode): 121000 nM
- IC50 ([2]; 22RV1, in the presence of 0.1 nM R1881, read-out: IC50, antagonist mode): 348 nM
SMILES: N#Cc1ncc(N2C(=O)C3(CCC3)N(c3ccc(OC4CCNCC4)nc3)C2=S)cc1C(F)(F)F [Cpd 43, 5-[5-oxo-8-[6-(4-piperidyloxy)-3-pyridyl]-7-thioxo-6,8-diazaspiro[3.4]octan-6-yl]-3-(trifluoromethyl)pyridine-2-carbonitrile]
- ASO Organ Growth (% of TP control) SVCG [3, 5]: 26.0 ± 17.8 % of TP control
- ASO Organ Growth (% of TP control) VP [3, 5]: 24.1 ± 48.1 % of TP control
- Reduction in ASO versus TP control ([3]; all 5 organs, p≤0.05, 30 mg/kg): significant reduction
- TGI ([4]; 30 mg/kg): 91% (n = 9)
- TGI ([4]; 50 mg/kg): 87% (n = 10)
